# Assay results reported in patent publication US20250025454A1 (priority 2021, published 2025).
# Read-outs that look alike come from different tables or passages of the source.
# Tests used:
# [1] = male, Sprague-Dawley, rat, in vivo
# [2] = in vivo; settings: male, Sprague-Dawley, rat, po; for AUC(0-t): AUClast
# [3] = 1000 mg/kg, Plasma concentration
smiles,measurement,setting,value
"Cc1c(-c2ccc(O)cc2)n(Cc2ccc(OCCN3CCCCC3)cc2)c2ccc(O)cc12 [Pipendoxifene, 2-(4-hydroxyphenyl)-3-methyl-1-[[4-(2-piperidin-1-ylethoxy)phenyl]methyl]indol-5-ol]",increase of plasma AUClast,[1],about 2 fold
same,AUClast,"[1]; po, 250 mg/kg",3515 ng·h/mL
same,Tmax,"[1]; po, 250 mg/kg",5.33 h
same,Tmax,"[1]; po, 500 mg/kg",6.67 h
same,Tmax,"[1]; po, 750 mg/kg",6.67 h
same,AUC(0-t),[2]; 250 mg/kg,4120 ng·h/mL
same,Cmax,[2]; 250 mg/kg,336 ng/mL
same,Tmax,"[2]; 250 mg/kg, tmax",6 h
same,Cmax,[2]; 500 mg/kg,462 ng/mL
same,Tmax,"[2]; 500 mg/kg, tmax",6 h
same,AUC(0-t),[2]; 750 mg/kg,5260 ng·h/mL
same,Tmax,"[2]; 750 mg/kg, tmax",6 h
same,AUC(0-t),[2]; 1000 mg/kg,5700 ng·h/mL
same,AUC(0-inf),"[2]; 1000 mg/kg, AUC∞",7730 ng·h/mL
same,Cmax,[2]; 1000 mg/kg,452 ± 75 ng/mL
same,concentration at 0.25 h,[2]; [3],5.05 ng/mL
same,concentration at 0.25 hr,[2]; [3],5.05 ng/mL
same,concentration at 2 h,[2]; [3],226 ng/mL
same,concentration at 2 hr,[2]; [3],226 ng/mL
same,concentration at 4 h,[2]; [3],335 ng/mL
same,concentration at 4 hr,[2]; [3],335 ng/mL
same,concentration at 6 h,[2]; [3],489 ng/mL
same,concentration at 8 h,[2]; [3],295 ng/mL
same,concentration at 8 hr,[2]; [3],295 ng/mL
same,Tmax,"[2]; 1000 mg/kg, tmax",6 h
same,Tmax,"[2]; Mean Tmax (plasma), range",5.3 to 6 h
